Source: patent US20230233514A1, “ANTIVIRAL COMPOUNDS AND METHODS OF USING THE SAME” (priority 2020, published 2023)
Where two headings read alike, the source gives them in different places.

Tests used:
[1] = test system: SARS-CoV-2; assay type: cell-based
[2] = test system: Vero E6 cells; details: 48 hours, CellTiterGlo
[3] = test system: SARS-CoV-2; assay type: cell-based; details: compound 10 and 31.6 μM, MOI 0.01, 72 hours
[4] = test system: Vero E6 cells
[5] = 1 hour pre-treatment, 1 nM-100 μM, MOI 0.05, 48 hours, Vero E6 cells

| Compound | effect on Viral Load (viral burden) [1, 5] | effect on Host Cell Number (cell viability) [4] | also measured |
| --- | --- | --- | --- |
| O=c1cc(-c2ccc(O)c(-c3c(O)cc(O)c4c(=O)cc(-c5ccc(O)cc5)oc34)c2)oc2cc(O)cc(O)c12 [Amentoflavone] | reduction in Viral Load levels |  |  |
| COc1ccc(-c2cc(=O)c3c(O)cc(O)cc3o2)cc1-c1c(O)cc(O)c2c(=O)cc(-c3ccc(O)cc3)oc12 [Bilobetin] | reduction in Viral Load levels |  |  |
| C[C@@H]1CC[C@@]2(OC1)O[C@H]1C[C@H]3[C@@H]4CC=C5C[C@@H](O[C@@H]6O[C@H](CO)[C@@H](O[C@@H]7O[C@@H](C)[C@H](O)[C@@H](O)[C@H]7O)[C@H](O)[C@H]6O[C@@H]6O[C@@H](C)[C@H](O)[C@@H](O)[C@H]6O)CC[C@]5(C)[C@H]4CC[C@]3(C)[C@H]1[C@@H]2C [Dioscin] | reduction in Viral Load levels |  | concentrations that did not significantly impact Vero E6 cell viability compared to the DMSO treated control [2]: less than or equal to 0.1 μM; toxicity observed at (and above) concentration [2]: ≥ 1 µM |
| O=c1oc2c(O)c(O)cc3c(=O)oc4c(O)c(O)cc1c4c23 [Ellagic Acid] |  |  | Remdesivir concentration at which the compound synergized [3]: ≤ 0.625 µM; combined effect with Remdesivir on host cell viability [3]: synergized |
| CN1C[C@@H](C(=O)N[C@]2(C)O[C@@]3(O)[C@@H]4CCCN4C(=O)[C@H](Cc4ccccc4)N3C2=O)C=C2c3cccc4[nH]cc(c34)C[C@H]21 [Ergotamine] | reduction in Viral Load levels |  |  |
| COc1cc(O)c2c(=O)cc(-c3ccc(OC)c(-c4c(O)cc(O)c5c(=O)cc(-c6ccc(O)cc6)oc45)c3)oc2c1 [Ginkgetin] | reduction in Viral Load levels |  |  |
| Oc1cc(O)c2c(c1)O[C@H](c1ccc(O)c(O)c1)[C@H](O)[C@H]2c1c(O)cc(O)c2c1O[C@H](c1ccc(O)c(O)c1)[C@H](O)C2 [Procyanidin B2] | did not show an effect | did not show an effect |  |
| CC1OC(OCC2OC(Oc3c(-c4ccc(O)cc4)oc4cc(OC5OC(C)C(O)C(O)C5O)cc(O)c4c3=O)C(O)C(O)C2O)C(O)C(O)C1O (stereo not shown) [Robinin] | did not show an effect | did not show an effect |  |
| C[C@@H]1O[C@@H](OC[C@H]2O[C@@H](Oc3c(-c4ccc(O)c(O)c4)oc4cc(O)cc(O)c4c3=O)[C@H](O)[C@@H](O)[C@@H]2O)[C@H](O)[C@H](O)[C@H]1O [Rutin] |  | did not show an effect |  |
| O=C(O[C@H]1Cc2c(O)cc(O)cc2O[C@H]1c1cc(O)c(O)c2c(=O)c(O)cc([C@H]3Oc4cc(O)cc(O)c4C[C@H]3O)cc12)c1cc(O)c(O)c(O)c1 [Theaflavin-3-gallate, Theaflavin 3-gallate] | reduction in Viral Load levels |  |  |
| O=c1c(O)cc([C@H]2Oc3cc(O)cc(O)c3C[C@H]2O)cc2c([C@H]3Oc4cc(O)cc(O)c4C[C@H]3O)cc(O)c(O)c12 [Theaflavin] | did not show an effect | did not show an effect |  |
| O=C(/C=C/c1ccc(O)cc1)OC[C@H]1O[C@@H](Oc2c(-c3ccc(O)cc3)oc3cc(O)cc(O)c3c2=O)[C@H](O)[C@@H](O)[C@@H]1O [Tiliroside] |  | did not show an effect | concentrations that only mildly impacted Vero E6 cell viability compared to the DMSO treated control [2]: less than or equal to 10 μM; toxicity observed at (and above) concentration [2]: ≥ 100 µM |
| O=c1oc2cc(O)ccc2c2ccc(O)cc12 [Urolithin A] |  |  | Remdesivir concentration at which the compound synergized [3]: ≤ 1.25 µM; combined effect with Remdesivir on host cell viability [3]: synergized |
| Hypericin | reduction in Viral Load levels |  |  |
| Miquelianin/Quercetin 3-glucuronide |  |  | effect on Viral Load (viral burden) [1]: did not show an effect |
| Punicalagin | reduction in Viral Load levels |  |  |
